# Experimental data as given in patent US20210254056A1, “IDENTIFICATION AND TARGETED MODULATION OF GENE SIGNALING NETWORKS” (CAMP4 THERAPEUTICS CORPORATION, priority 2017, published 2021).
# Tested on: hepatocytes
# Experiment: RNA-seq of hepatocytes treated with Phase III failure compounds
# Details: hepatocytes
# Protocol: RNA-seq was performed to determine the effects of the compounds on hepatocytes.
# Significance was determined by the criteria of FPKM≥0.5, a log 2(fold-change)≥1, and a […].
smiles,measurement,setting,value
"CCC(CC)[C@H](NC(C)=O)[C@@H]1[C@H](O)[C@@H](C(=O)O)C[C@H]1NC(=N)N.O.O.O [peramivir (trihydrate), peramivir]",RNA-seq results: BCKDK expression,gene BCKDK,−0.14
same,RNA-seq results: BCO1 expression,gene BCO1,−0.07
same,RNA-seq results: BCR expression,gene BCR,−0.02
same,RNA-seq results: BLNK expression,gene BLNK,−0.02
same,RNA-seq results: BLOC1S3 expression,gene BLOC1S3,0.01
same,RNA-seq results: BMPR1A expression,gene BMPR1A,−0.14
same,RNA-seq results: BRAF expression,gene BRAF,−0.13
same,RNA-seq results: BSCL2 expression,gene BSCL2,−1.57
same,RNA-seq results: BTD expression,gene BTD,−0.14
same,RNA-seq results: C4A expression,gene C4A,0.79
same,RNA-seq results: C9 expression,gene C9,−0.57
same,RNA-seq results: C10orf10 expression,gene C10orf10,0.08
same,RNA-seq results: C10orf11 expression,gene C10orf11,−0.18
same,RNA-seq results: C15orf41 expression,gene C15orf41,−0.25
same,RNA-seq results: CA2 expression,gene CA2,−0.12
same,RNA-seq results: CA5A expression,gene CA5A,0.03
same,RNA-seq results: CA12 expression,gene CA12,−0.29
same,RNA-seq results: CAV1 expression,gene CAV1,−0.36
same,RNA-seq results: CCND1 expression,gene CCND1,−0.01
same,RNA-seq results: CD46 expression,gene CD46,−0.29
same,RNA-seq results: CD81 expression,gene CD81,−0.08
same,RNA-seq results: CD320 expression,gene CD320,−0.01
same,RNA-seq results: CDAN1 expression,gene CDAN1,0.23
same,RNA-seq results: CDH1 expression,gene CDH1,0.05
same,RNA-seq results: CEP19 expression,gene CEP19,−0.09
same,RNA-seq results: CEP83 expression,gene CEP83,−0.20
same,RNA-seq results: CEP164 expression,gene CEP164,0.39
same,RNA-seq results: CEP290 expression,gene CEP290,−0.30
same,RNA-seq results: CFB expression,gene CFB,−0.13
same,RNA-seq results: CFHR2 expression,gene CFHR2,−0.38
same,RNA-seq results: CHRM3 expression,gene CHRM3,−0.12
same,RNA-seq results: CIDEC expression,gene CIDEC,−0.45
same,"RNA-seq results, CLDN1 expression",gene CLDN1,−0.36
same,"RNA-seq results, COG1 expression",gene COG1,−0.10
same,"RNA-seq results, COG5 expression",gene COG5,−0.36
same,RNA-seq results: COG5 expression,gene COG5,−0.22
same,"RNA-seq results, COG6 expression",gene COG6,−0.54
same,RNA-seq results: COG6 expression,gene COG6,−0.08
same,"RNA-seq results, COL1A1 expression",gene COL1A1,0.33
same,RNA-seq results: COL1A1 expression,gene COL1A1,0.09
same,"RNA-seq results, COX6A1 expression",gene COX6A1,0.39
same,RNA-seq results: COX6A1 expression,gene COX6A1,−0.01
same,"RNA-seq results, CP expression",gene CP,−0.09
same,RNA-seq results: CP expression,gene CP,−0.27
same,"RNA-seq results, CPS1 expression",gene CPS1,0.01
same,RNA-seq results: CPS1 expression,gene CPS1,−0.63
same,"RNA-seq results, CPT1A expression",gene CPT1A,−0.10
same,RNA-seq results: CPT1A expression,gene CPT1A,0.13
same,"RNA-seq results, CPT2 expression",gene CPT2,−0.19
same,RNA-seq results: CPT2 expression,gene CPT2,0.05
same,"RNA-seq results, CROT expression",gene CROT,−0.25
same,RNA-seq results: CROT expression,gene CROT,−0.4
same,"RNA-seq results, CSPP1 expression",gene CSPP1,−0.06
same,RNA-seq results: CSPP1 expression,gene CSPP1,−0.05
same,"RNA-seq results, CTC1 expression",gene CTC1,0.10
same,RNA-seq results: CTC1 expression,gene CTC1,0.2
same,"RNA-seq results, CTDSP2 expression",gene CTDSP2,0.00
same,RNA-seq results: CTDSP2 expression,gene CTDSP2,−0.07
same,"RNA-seq results, CTH expression",gene CTH,0.06
same,RNA-seq results: CTH expression,gene CTH,0.6
same,"RNA-seq results, CTNS expression",gene CTNS,−0.25
same,RNA-seq results: CTNS expression,gene CTNS,0.65
same,"RNA-seq results, CTSF expression",gene CTSF,0.21
same,RNA-seq results: CTSF expression,gene CTSF,0.3
same,"RNA-seq results, CTSK expression",gene CTSK,0.28
same,RNA-seq results: CTSK expression,gene CTSK,0.04
same,"RNA-seq results, CYB5A expression",gene CYB5A,0.01
same,RNA-seq results: CYB5A expression,gene CYB5A,0.34
same,"RNA-seq results, CYB5R3 expression",gene CYB5R3,0.00
same,RNA-seq results: CYB5R3 expression,gene CYB5R3,0.13
same,"RNA-seq results, CYP2B6 expression",gene CYP2B6,0.07
same,RNA-seq results: CYP2B6 expression,gene CYP2B6,0.12
same,"RNA-seq results, CYP2C19 expression",gene CYP2C19,0.25
same,RNA-seq results: CYP2C19 expression,gene CYP2C19,−0.31
same,"RNA-seq results, CYP2D6 expression",gene CYP2D6,0.24
same,RNA-seq results: CYP2D6 expression,gene CYP2D6,0.22
same,"RNA-seq results, CYP3A4 expression",gene CYP3A4,−0.53
same,RNA-seq results: CYP3A4 expression,gene CYP3A4,0.77
same,"RNA-seq results, CYP7B1 expression",gene CYP7B1,−0.16
same,RNA-seq results: CYP7B1 expression,gene CYP7B1,−0.34
same,"RNA-seq results, CYP27A1 expression",gene CYP27A1,−0.21
same,RNA-seq results: CYP27A1 expression,gene CYP27A1,0.28
same,"RNA-seq results, CYP39A1 expression",gene CYP39A1,−0.20
same,RNA-seq results: CYP39A1 expression,gene CYP39A1,−0.11
same,"RNA-seq results, DAO expression",gene DAO,0.00
same,RNA-seq results: DAO expression,gene DAO,0.13
same,"RNA-seq results, DBT expression",gene DBT,−0.24
same,RNA-seq results: DBT expression,gene DBT,−0.32
same,"RNA-seq results, DCDC2 expression",gene DCDC2,−0.04
same,RNA-seq results: DCDC2 expression,gene DCDC2,−0.6
same,"RNA-seq results, DCXR expression",gene DCXR,−0.20
same,RNA-seq results: DCXR expression,gene DCXR,0.16
same,"RNA-seq results, DDC expression",gene DDC,−0.41
same,RNA-seq results: DDC expression,gene DDC,−0.25
same,"RNA-seq results, DDO expression",gene DDO,0.12
same,RNA-seq results: DDO expression,gene DDO,0.12
same,"RNA-seq results, DENR expression",gene DENR,−0.36
same,RNA-seq results: DENR expression,gene DENR,−0.13
same,"RNA-seq results, DHCR7 expression",gene DHCR7,0.04
same,RNA-seq results: DHCR7 expression,gene DHCR7,0.32
same,"RNA-seq results, DHCR24 expression",gene DHCR24,−0.16
same,RNA-seq results: DHCR24 expression,gene DHCR24,−0.14
same,"RNA-seq results, DHODH expression",gene DHODH,0.27
same,RNA-seq results: DHODH expression,gene DHODH,0.22
same,"RNA-seq results, DIS3L2 expression",gene DIS3L2,−0.14
same,RNA-seq results: DIS3L2 expression,gene DIS3L2,−0.14
same,"RNA-seq results, DKC1 expression",gene DKC1,−0.11
same,RNA-seq results: DKC1 expression,gene DKC1,−0.05
same,"RNA-seq results, DLAT expression",gene DLAT,−0.15
same,RNA-seq results: DLAT expression,gene DLAT,−0.21
same,"RNA-seq results, DLD expression",gene DLD,−0.35
same,RNA-seq results: DLD expression,gene DLD,−0.3
same,"RNA-seq results, DMGDH expression",gene DMGDH,−0.11
same,RNA-seq results: DMGDH expression,gene DMGDH,−0.15
same,"RNA-seq results, DNAH5 expression",gene DNAH5,−0.05
same,RNA-seq results: DNAH5 expression,gene DNAH5,−0.1
same,"RNA-seq results, DNM1L expression",gene DNM1L,−0.28
same,RNA-seq results: DNM1L expression,gene DNM1L,−0.12
same,"RNA-seq results, DOLK expression",gene DOLK,0.09
